In patent publication US11473052B2, “Bacillus subtilis subspecies” (Novozymes A/S, priority 2015, dated 2022) one finds MIC data, which are given here for one compound.

Experiment [1] has as its system B. subtilis DSM 29870. Kind of experiment: MIC of antibiotics by broth micro dilution (CLSI M07-A9). The following applies: Bacillus subtilis.
Experiment [2] deals with S. aureus ATCC 29213. Kind of experiment: MIC of antibiotics by broth micro dilution (CLSI M07-A9), control strain. The following applies: Staphylococcus aureus.

Read-outs that look alike come from different tables or passages of the source.

Broadly, the MIC is the lowest concentration found to suppress growth. Consider `CN[C@H](CC(C)C)C(=O)N[C@H]1C(=O)N[C@@H](CC(N)=O)C(=O)N[C@H]2C(=O)N[C@H]3C(=O)N[C@H](C(=O)N[C@H](C(=O)O)c4cc(O)cc(O)c4-c4cc3ccc4O)[C@H](O)c3ccc(c(Cl)c3)Oc3cc2cc(c3O[C@@H]2O[C@H](CO)[C@@H](O)[C@H](O)[C@H]2O[C@H]2C[C@](C)(N)[C@H](O)[C@H](C)O2)Oc2ccc(cc2Cl)[C@H]1O` [Vancomycin], for which the MIC was 0.25 µg/mL in experiment [1] (DSM29870, read-out: MIC 1); 0.25 µg/mL in experiment [1] (DSM29870, read-out: MIC 2); 0.25 µg/mL in experiment [1] (DSM29870, read-out: MIC 3); 0.5 µg/mL in experiment [2] (ATCC29213, read-out: MIC 1); 1 µg/mL in experiment [2] (ATCC29213, read-out: MIC 2); 1 µg/mL in experiment [2] (ATCC29213, read-out: MIC 3).
